What all share (type): biochemical, Neofusicoccum parvum
For one test, the system named is T1, Bgl3.
T1 construct: native extracellular enzyme purified from culture supernatant (ammonium sulphate, HiTrap Q FF, native gel extraction); about 65 kDa; GH3 only inferred by authors
In words: 4-nitrophenol release at […] nm, Lineweaver-Burk plot. As to conditions: standard assay described as 50 mM sodium acetate pH 5.0, 55 °C; 4-NPG 0-13.28 mM.

Another test has as its system T2, Bgl1.
T2 construct: native extracellular enzyme purified from culture supernatant, extracted from native gel; 240 kDa on native PAGE
The experiment in a line: 4-NPG hydrolysis, absorbance at […] nm, glucose […]. As to conditions: product inhibition; substrate 4-NPG; standard assay described as 50 mM sodium acetate pH 5.0, 55 °C.

Another test deals with T3, Bgl2.
T3 construct: native extracellular enzyme purified from culture supernatant, extracted from native gel; 230 kDa on native PAGE
In words: 4-NPG hydrolysis, absorbance at […] nm, glucose […]. As to conditions: product inhibition; substrate 4-NPG; standard assay described as 50 mM sodium acetate pH 5.0, 55 °C.

In PMC10060427, “A glucose tolerant β-glucosidase from a newly isolated Neofusicoccum parvum strain F7: production, purification, and characterization” (Scientific Reports, 2023) one finds Km and IC50 data, which are given here for two compounds.

`O=[N+]([O-])c1ccc(O[C@@H]2O[C@H](CO)[C@@H](O)[C@H](O)[C@H]2O)cc1` [4-nitrophenyl-β-D-glucopyranoside]: the Km with Bgl3 was 1.18 mM. Take `OC[C@H]1OC(O)[C@H](O)[C@@H](O)[C@@H]1O` (stereo partly drawn) [glucose]: the concentration for half-maximal inhibition (IC50) in the test on Bgl1 came to 2.6 mM; with Bgl2, 22.6 mM.

What is called Km is the substrate concentration at which the rate is half of its maximum. In general, IC50 refers to the midpoint of a concentration-inhibition curve. Read a high IC50 as lower potency.
